Target: interaction between p53 and MDM2 proteins (recombinant GST-tagged MDM2, biotinylated p53 peptide) (Homo sapiens, UniProt Q00987)
Assay: HTRF (homogeneous time-resolved fluorescence) assay of p53-MDM2 interaction
Type: binding
Details: bsa 0.02%
Method: The ability of the compounds to inhibit the interaction between p53 and MDM2 proteins was measured by an HTRF (homogeneous time-resolved fluorescence) assay in which recombinant GST-tagged MDM2 binds to a peptide that resembles the MDM2-interacting region of p53 (Lane et al.). Binding of GST-MDM2 protein and p53-peptide (biotinylated on its N-terminal end) is registered by the FRET (fluorescence resonance energy transfer) between Europium (Eu)-labeled anti-GST antibody and streptavidin-conjugated Allophycocyanin (APC).
Add 10 uL diluted compounds (1:5 dilution in reaction buffer) to each well, mix by shaking. Add 20 uL biotinylated p53 peptide (180 nM working solution) in reaction buffer to each well and mix on shaker. Incubate at 37° C. for 1 h. Add 20 uL streptavidin-APC and Eu-anti-GST antibody mixture (6 nM Eu-anti-GST and 60 nM streptavidin-APC working solution) in TBS buffer with 0.2% BSA, shake at room temperature for 30 minutes and read using a TRF-capable plate reader at
665 and 615 nm (Victor 5, Perkin ElmerWallac). If not specified, the reagents were purchased from Sigma Chemical Co.

Sequence of interaction between p53 and MDM2 proteins (recombinant GST-tagged MDM2, biotinylated p53 peptide) (Q00987 whole entry): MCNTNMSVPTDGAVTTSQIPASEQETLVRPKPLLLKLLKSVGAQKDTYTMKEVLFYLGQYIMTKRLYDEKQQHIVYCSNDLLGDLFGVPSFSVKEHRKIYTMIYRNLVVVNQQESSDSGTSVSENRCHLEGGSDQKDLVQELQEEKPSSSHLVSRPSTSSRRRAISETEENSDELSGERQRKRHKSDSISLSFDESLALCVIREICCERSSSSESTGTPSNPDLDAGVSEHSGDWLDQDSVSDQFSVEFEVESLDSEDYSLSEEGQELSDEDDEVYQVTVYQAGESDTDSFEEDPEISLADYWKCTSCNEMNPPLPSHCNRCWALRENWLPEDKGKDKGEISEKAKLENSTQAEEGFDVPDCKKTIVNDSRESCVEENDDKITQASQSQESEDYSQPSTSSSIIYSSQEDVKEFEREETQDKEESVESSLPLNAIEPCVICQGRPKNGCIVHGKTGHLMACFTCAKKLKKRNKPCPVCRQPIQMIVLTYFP

IC50 [nM] | Compound
725 | CC(C)(CO)C[C@@H]1CN(C(=O)NCC[C@H](O)CO)[C@H](c2cccc(Cl)c2F)[C@]12C(=O)Nc1cc(Cl)ccc12 (mixture of isomers) [Example 33, rac-(2′S,3′S,4′S)-6-chloro-2′-(3-chloro-2-fluoro-phenyl)-4′-(3-hydroxy-2,2-dimethyl-propyl)-2-oxo-1,2-dihydro-spiro[indole-3,3′-pyrrolidine]-1′-carboxylic acid ((S)-3,4-dihydroxy-butyl)-amide]
581 | COC(=O)c1ccc(NC(=O)N2C[C@@H](CC(C)(C)C)[C@@]3(C(=O)Nc4cc(Cl)ccc43)[C@H]2c2cccc(Cl)c2F)cc1 (racemic) [Example 12, rac-4-{[(2′S,3′S,4′S)-6-chloro-2′-(3-chloro-2-fluoro-phenyl)-4′-(2,2-dimethyl-propyl)-2-oxo-1,2-dihydro-spiro[indole-3,3′-pyrrolidin]e-1′-carbonyl]-amino}-benzoic acid methyl ester]
133 | CC(C)(C)C[C@@H]1CN(C(=O)NC2CCN(S(C)(=O)=O)CC2)[C@H](c2cccc(Cl)c2F)[C@]12C(=O)Nc1cc(Cl)ccc12 [Example 28, chiral (2′S,3′S,4′S)-6-chloro-2′-(3-chloro-2-fluoro-phenyl)-4′-(2,2-dimethyl-propyl)-2-oxo-1,2-dihydro-spiro[indole-3,3′-pyrrolidine]-1′-carboxylic acid (1-methanesulfonyl-piperidin-4-yl)-amide]
773 | CC(C)(C)C[C@@H]1CN[C@H](c2cccc(Cl)c2F)[C@]12C(=O)Nc1cc(Cl)ccc12 (racemic) [Example 6, rac-(2′S,3′S,4′S)-6-chloro-2′-(3-chloro-2-fluoro-phenyl)-4′-(2,2-dimethyl-propyl)-1H-spiro[indole-3,3′-pyrrolidin]-2-one]
178 | CC(C)(C)C[C@@H]1CN(C(=O)OCc2ccc(C(=O)O)cc2)[C@H](c2cccc(Cl)c2F)[C@]12C(=O)Nc1cc(Cl)ccc12 (racemic) [Example 49, rac-(2′S,3′S,4′S)-6-chloro-2′-(3-chloro-2-fluoro-phenyl)-4′-(2,2-dimethyl-propyl)-2-oxo-1,2-dihydro-spiro[indole-3,3′-pyrrolidine]-1′-carboxylic acid 4-carboxy-benzyl ester]

Source: patent US8288431B2, “Substituted spiroindolinones” (Hoffmann-La Roche Inc., priority 2010, dated 2012)
